Results published in US20090099074A1, “MODULATING FOOD INTAKE” (CONJUCHEM BIOTECHNOLOGIES INC., priority 2007, published 2009).

System: Male Wistar rats
Experiment: Refeeding after 24 h fast, subcutaneous injection, sham operated or AP-SFO lesioned rats
Assay type: in vivo, rat
Description: Male Wistar rats were either sham operated or subjected to electrolytic lesions of the AP, SFO or both. Two weeks were allowed for recovery after surgeries while body weight, food and water intake were measured daily. Then rats, which were fasted for 24 hours, were subcutaneously injected with anorexigenic doses of PYY-HAS, PYY or saline (for controls) following which free access to food was reallowed. Food and water intake were measured for 24 hours following drug injections. […] However, the anorexigenic effect of both peptides was delayed in AP-SFO-lesioned rats, 1 hour in PYY treated rats and 2 hours in PYY-HAS treated rats.

PYY
delay of anorexigenic effect in AP-SFO-lesioned rats (AP-SFO-lesioned rats): 1 h
body weight gain after food deprivation (after 24 hours fast): did not
persistence of anorexigenic effect during refeeding (after 24 hours fast): only during the first two hours of refeeding
time of maximum anorexigenic effect (after 24 hours fast): 1 h
